Source: patent US9273318B2, “Induction of thyroid iodide-handling gene expression in human cancers” (THE JOHNS HOPKINS UNIVERSITY, priority 2008, dated 2016)
“Also recorded” adds a separate entry of the source. Read-outs that look alike come from different tables or passages of the source.

What was measured:
KAT10 cells [1] = experiment: Radioactive iodide uptake assay, KAT10 cells; format: cell-based, human; conditions: KAT10 cells treated with inhibitors, 1 μCi Na125I, 1 h
Method: (§1) FIG. 14A-14C. […] FIG. 14A) Flow cytometric measurement of NIS protein expression. […] NIS protein levels were measured by flow cytometry. The blue frames indicate the cells expressing NIS protein, including dead (right upper quadrant; positive for both 7-AAD and NIS) and living (right lower quadrant, positive only for NIS) cells. FIG. 14B) Immunofluorescent localization of NIS. After a 30-h combined treatment with both Akti IV and U0126 (as in FIG. 14A), cells were analyzed by immunofluorescent microscopy using anti-NIS and FITC-coupled secondary antibody and double immunofluorescence with the red color representing 7-AAD nuclear staining and the green color representing NIS expression and localization. […] FIG. 14C) In vitro radioiodide uptake. […] Cells were subsequently incubated with 1 μCi Na125I/0.5 ml/well on 12-well plates for 1 h. Cells were then washed and harvested for radioactivity measurement using a gamma-counter as described in the Experimental Procedures. Data are expressed as the mean±SD of values from three assays. **, P<0.01, compared with control or empty vector.
Thyroid cancer cells (1×10^6 cells/well) treated under the indicated conditions were seeded in 12-well plates. […] Cells were collected and radioactivity was counted by a gamma-counter.

[2] = test system: phosphorylation of Akt (p-Akt); experiment: Western blotting of phosphorylated Akt in NPA cells; conditions: Akti IV 0.5 μM, 30 h
Method: FIGS. 1A-1C Effects of suppression of the MAPK and PI3K/Akt pathways by specific inhibitors on NPA cells. FIG. 1A) Inhibition of ERK and Akt phosphorylation by suppression of MAPK and PI3K/Akt pathways using the MEK-specific inhibitor U0126 and the Akt-specific inhibitor Akti IV, respectively. NPA cells were treated with U0126 at 10 μM, or with Akti IV at 0.5 μM for 30 h. Cells were lysed for Western blotting assay. The activities of MAPK and PI3K/Akt pathways were reflected by the level of phosphorylated ERK and Akt detected with specific anti-phosphorylated ERK (p-ERK) and anti-phosphorylated Akt (p-Akt) antibodies. Immunoblotting with antibody against β-actin was used for quality control.
Effects of suppression of the PI3K/Akt and MAP kinase pathways by specific inhibitors on thyroid cancer cells. FIG. 7 A) Inhibition of Akt and ERK phosphorylation by suppression of PI3K/Akt and MAP kinase pathways using the Akt-specific inhibitor Akti IV and the MEK-specific inhibitor U0126, respectively. NPA and KAT10 cells were treated with Akti IV at 0.5 and 2 μM, respectively, or with U0126 at 10 μM for 30 h. Cells were lysed for Western blotting assay. The activities of PI3K/Akt and MAP kinase pathways were reflected by the level of phosphorylated Akt and ERK detected with specific anti-phosphorylated Akt (p-Akt) and anti-phosphorylated ERK (p-ERK) antibodies. […]

NPA cells [3] = experiment: Radioactive iodide uptake assay, NPA cells; format: cell-based, human; conditions: NPA cells treated with inhibitors, 1 μCi Na125I, 1 h
Method: (§2) FIG. 6A-6D. […] After a serum starvation for 24 h, total RNA was isolated for expression analysis for the indicated thyroid iodide-metabolizing genes. RT-PCR analysis was performed for the expression of NIS in NPA cells. FIG. 6B) Flow cytometric measurement of NIS protein expression. NPA cells were treated with specific inhibitors (upper panel) as described in FIG. 1 or stably transfected with specific siRNAs to knock down BRAF and Akt-1/2, individually or in combination as described in FIG. 3 (lower panel). NIS protein levels were measured by flow cytometry. […] After a 30-h combined treatment with both U0126 and Akti IV (as in FIG. 6B), cells were analyzed by immunofluorescent microscopy using anti-NIS and FITC-coupled secondary antibody and double immunofluorescence with the red color representing 7-AAD nuclear staining and the green color representing NIS expression and localization. […] Cells were then washed and harvested for radioactivity measurement using a gamma-counter as described in the Materials and Methods. Data are expressed as the mean±SD of values from three assays. **, P<0.01, compared with control or empty vector.
(§3) FIG. 14A-14C. […] NIS protein levels were measured by flow cytometry. […] Cells were then washed and harvested for radioactivity measurement using a gamma-counter as described in the Experimental Procedures. […]

[4] = test system: thyroid iodide-handling genes (NIS, TSHR, Tg, TPO, FOXE1, TTF1); experiment: RT-PCR / quantitative RT-PCR of thyroid iodide-handling genes, NPA cells; format: cell-based, human; conditions: U0126 10 μM, Akti IV 0.5 μM, 30 h
NIS protein [5] = experiment: Flow cytometry and immunofluorescence of NIS protein expression, KAT10 cells; format: cell-based, human; conditions: U0126 10 μM, Akti IV 2 μM, control 8.8%
Method: as §1, with “vector. […]” for “vector.”

KAT10 cells [6] = experiment: MTT cell proliferation assay, KAT10 cells; conditions: 4 μM U0126, 1 μM Akti IV, 5-day course
Method: (§5) FIG. 7B) Inhibition of thyroid cancer cell proliferation by suppression of PI3K/Akt and MAP kinase pathways achieved with Akti IV and U0126 individually or in combination (U+A) as indicated. MTT assay was performed to evaluate cell proliferation over a 5-day course of treatment with Akti IV and U0126.

[7] = test system: phosphorylation of Akt (p-Akt); experiment: Western blotting of phosphorylated Akt in KAT10 cells; conditions: Akti IV 2 μM, 30 h
Method: Effects of suppression of the PI3K/Akt and MAP kinase pathways by specific inhibitors on thyroid cancer cells. […] NPA and KAT10 cells were treated with Akti IV at 0.5 and 2 μM, respectively, or with U0126 at 10 μM for 30 h. Cells were lysed for Western blotting assay. The activities of PI3K/Akt and MAP kinase pathways were reflected by the level of phosphorylated Akt and ERK detected with specific anti-phosphorylated Akt (p-Akt) and anti-phosphorylated ERK (p-ERK) antibodies. Immunoblotting with antibody against β-actin was used for quality control.
Cells were lysed in RIPA buffer (Santa Cruz, Calif.). Cellular proteins were resolved by electrophoresis on a SDS-polyacrylamide (10%) gel (SDS-PAGE), transferred onto PVDF membranes (Amersham Pharmacia Biotech, Piscataway, N.J.), and immunoblotted with specific primary antibodies. Anti-BRAF (Sc-166), anti-phospho-Akt-1/2/3 (Sc-7985-R), anti-phospho-ERK (Sc-7383), and anti-Actin (Sc-1616-R) were purchased from Santa Cruz (Santa Cruz, Calif.). Anti-Akt-1 (#2967) and anti-Akt-2 (#2964) were purchased from Cell Signaling Technologies, Inc. (Beverly, Mass.). Antigen-antibody complexes were visualized using HRP-conjugated anti-mouse (Sc-2005, Santa Cruz, Calif.) or anti-rabbit (Sc-2004, Santa Cruz, Calif.) IgG antibodies and ECL Western Blotting Analysis System (Amersham Pharmacia).

[8] = test system: thyroid genes (Tg, TSHR, NIS, TTF-1, TTF2); experiment: Quantitative real-time PCR of thyroid iodide-metabolizing genes, KAT10 cells; format: cell-based, human; conditions: U0126 10 μM, Akti IV 2 μM, 30 h
NIS protein [9] = experiment: Flow cytometry and immunofluorescence of NIS protein expression, NPA cells; format: cell-based, human; conditions: U0126 10 μM, Akti IV 0.5 μM, 30 h, control 3.4%
Method: as §2, §3

NPA cells [10] = experiment: MTT cell proliferation assay, NPA cells; conditions: 4 μM U0126, 0.2 μM Akti IV, 5-day course
Method: FIG. 1B) Inhibition of cell proliferation by suppression of MAPK and PI3K/Akt pathways achieved with U0126 and Akti IV individually or in combination (U+A) as indicated. MTT assay was performed to evaluate cell proliferation over a 5-day course of treatment with U0126 and Akti IV.
as §5

[11] = test system: phosphorylation of ERK (p-ERK); conditions: NPA cells, U0126 10 μM, 30 h
From the text: Cells were lysed for Western blotting assay.
(§4) FIG. 7A-7C. […] Cells were lysed for Western blotting assay.
Cells were lysed in RIPA buffer.

[12] = test system: phosphorylation of ERK (p-ERK); conditions: KAT10 cells, U0126 10 μM, 30 h
From the text: as §4

**Q.** Which results are given for `CC[n+]1c(/C=C/N(C)c2ccccc2)n(-c2ccccc2)c2ccc(-c3nc4ccccc4s3)cc21.[I-]` [Akti IV, Akt inhibitor IV]?
**A.** Na125I uptake (KAT10 cells [1]): significantly increased; inhibition of phosphorylation of Akt (p-Akt) [2]: strongly inhibited; radioiodide uptake (NPA cells [3]): significantly increased; expression of iodide-handling genes (NIS, TSHR, Tg, TTF1) [4]: restored; also recorded: induced or dramatically enhanced; NIS expression (cells expressing NIS protein, flow cytometry) (NIS protein [5]): 29%; inhibition of cell proliferation (MTT) (KAT10 cells [6]): partially; inhibition of phosphorylation of Akt (p-Akt) [7]: strongly inhibited; expression of thyroid genes (Tg, TSHR, NIS, TTF1) [8]: restored; NIS expression (cells expressing NIS protein, flow cytometry) (NIS protein [9]): 13.7%; inhibition of cell proliferation (MTT) (NPA cells [10]): partially

**Q.** With `N#CC(=C(/N)Sc1ccccc1N)/C(C#N)=C(\N)Sc1ccccc1N` [U0126] as the compound, how does the Na125I uptake (KAT10 cells [1]) read?
**A.** significantly increased

**Q.** What about the radioiodide uptake (NPA cells [3]) of the same compound?
**A.** significantly increased

**Q.** And the “expression of iodide-handling genes (NIS, TSHR, Tg, TTF1)” value [4]?
**A.** restored; also recorded: induced or dramatically enhanced

**Q.** And the “NIS expression (cells expressing NIS protein, flow cytometry)” value (NIS protein [5])?
**A.** 11.8%

**Q.** And the “inhibition of phosphorylation of ERK (p-ERK)” value [11]?
**A.** strongly inhibited

**Q.** And the “inhibition of cell proliferation (MTT)” value (KAT10 cells [6])?
**A.** partially

**Q.** What about the “expression of thyroid genes (Tg, TSHR, NIS, TTF1)” value [8] of the same compound?
**A.** restored

**Q.** And the “inhibition of phosphorylation of ERK (p-ERK)” value [12]?
**A.** strongly inhibited

**Q.** What about the “NIS expression (cells expressing NIS protein, flow cytometry)” value (NIS protein [9]) of the same compound?
**A.** 6%

**Q.** And the “inhibition of cell proliferation (MTT)” value (NPA cells [10])?
**A.** partially
